Data as given in patent publication US20060178408A1, “Nicotinamide derivatives useful as pde4 inhibitors” (priority 2003, published 2006).

Test system: TNFα release from human peripheral blood mononuclear cells
Assay: Inhibition of LPS-stimulated TNFα release from human peripheral blood mononuclear cells (TNFα screen, ELISA)
Format: cell-based
Settings: LPS-stimulated human PBMC, 18 hours incubation, TNFα in supernatant by ELISA
Protocol: Venous blood is collected from healthy volunteers and the mononuclear cells purified by centrifugation through Histopaque (Ficoll) cushions. TNFα production from these cells is stimulated by addition of lipopolysaccharide. After 18 hours incubation in the presence of LPS, the cell supernatant is removed and the concentration of TNFα in the supernatant determined by ELISA.

IC50: 14 nM
Compound: O=C(N[C@H]1CC[C@@H](NC(=O)c2cc(Cl)cc(Cl)c2O)CC1)c1cc(F)cnc1OC1CCSCC1 [Example 26, Syn-N-[4-(3,5-Dichloro-2-hydroxy-benzoylamino)-cyclohexyl]-5-fluoro-2-(tetrahydro-thiopyran-4-yloxy)-nicotinamide]
